Measured values reported in ChEMBL document CHEMBL1201862, “PubChem BioAssay data set” (2004).
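Tested at 5 concentrations; 48 h exposure; 96-well plates; endpoints linearly interpolated, else capped at highest concentration. The concentration for 50% growth inhibition is given as GI50.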 Active and inactive are the calls of the source. No stated cut-off is given here; in the data, active = GI50 up to about 1.1 µM and inactive = higher.

Key:
Assay in all cases: NCI anticancer screen, dose series, 48 h
SF-268 = tested on: SF-268
SF-295 = tested on: SF-295
M19-MEL = tested on: M19-MEL

Measured: GI50

CN(C)CCCNC(=O)c1cccc2ccccc12
inactive: SF-268 > 100 µM | SF-295 > 100 µM | M19-MEL > 10 µM
